Experimental data reported in patent US20250155433A1, “FLUORESCENT SENSORS FOR DETECTION OF SIDEROPHORES AND OTHER MOLECULES PRODUCED BY BACTERIAL PATHOGENS” (Kansas State University Research Foundation, priority 2021, published 2025).
Where a SMILES comes first, the peptide text is derived from it. [ ]: non-standard residue; d: D form. Orn(N5-OH,N5-Ac) = CC(=O)N(O)CCC[C@H](N)C(=O)O

Tests used:
CRE/ESKAPE pathogens = test: Decoy sensor measurements of metal complex uptake by bacteria; type: cell-based
Description: Fluorescence spectroscopic uptake measurements. We employed FD sensors to monitor TonB-dependent uptake of various siderophores by bacterial pathogens. In the fluorescence spectroscopic uptake studies E. coli OKN13 (ΔtonB, ΔfepA) or OKN1359 (ΔtonB, Δfiu, ΔfepA, Δcir) were host strains for pITS23 derivatives carrying single Cys mutants of an LGP of interest. The FLGP were decoy sensors that monitored ferric siderophore uptake by test strains. For each assay we used 10^7 sensor cells (e.g., OKN13/pFepA-FM (53)) in a 2 mL quartz cuvette containing PBS+0.2% glucose at 37° C. After recording fluorescence intensity for 100 seconds, we added an iron complex (e.g., FeEnt) at a final concentration of ˜10 nM. After incubating the sample for 100 seconds, during which time fluorescence was quenched (e.g., ˜60% quenching for EcoFepA_A698C-FM), we added 0.5-2×10^7 cells of the test strain (E. coli MG1655, K. pneumoniae Kp52.145, A. baumannii 17978, P. aeruginosa PA01, E. cloacae) and monitored the time-course of fluorescence emissions at 520 nm for 15-40 minutes, with stirring.

KpnFepA2380 = test: Fluorescence quenching binding to KpnFepA2380-FM sensor; design: species or system Klebsiella pneumoniae; conditions: ferric complexes; Cys residue T255C, FM-labeled; NB = no binding; read-out: Affinity (KD) of sensor KpnFepA 2380
Procedure: (§1) Fluorescence modifications. For modifications with maleimide fluorophores, we inoculated E. coli strains OKN3, OKN13, OKN359 or OKN1359, harboring plasmids that encoded a Cys mutant LGP, from frozen stocks into LB, grew them overnight and sub-cultured at 1% into iron-deficient MOPS minimal media, with shaking (200 rpm) at 37° C. for 10-12 h, until late exponential phase. After collecting the cells by centrifugation at 7500×g for 15 min, and washing with 50 mM NaHPO4, pH 6.7, we labeled the Cys-mutant LGP with 5 μM FM in 50 mM NaHPO4, pH 6.7 for 15 min at 37° C. FM. We terminated the labeling reactions with 100 μM β-mercaptoethanol. […] After electrophoresis, we first visualized the fluorescence labeling on a Typhoon 8600 Biomolecular Scanner (GE/Amersham), and then stained the gels with Coomassie blue R (153).
(§2) Fluorescence spectroscopic binding determinations. We observed fluorophore-labeled cells in an SLM AMINCO 8100 fluorescence spectrometer, upgraded with an OLIS operating system and software (OLIS SpectralWorks, OLIS Inc., Bogart, GA), to control its shutters, polarizers and data collection. We also utilized an OLIS Clarity fluorescence spectrometer for fluorescence assays. […] We performed each measurement in triplicate and calculated the mean value of F/F0 at each ligand concentration. […]

PaeFpvA = target: T1, PaeFpvA (Pseudomonas aeruginosa, UniProt P48632, T660C); test: Fluorescence quenching binding to PaeFpvA-FM sensor; conditions: secondary ligands
T1 construct: expressed in transfected cells; host or cells: E. coli OKN3/OKN13/OKN359/OKN1359 carrying a pITS23 derivative
Procedure: as §1, §2

AbaPiuA = AbaPiuA (Acinetobacter baumannii, UniProt D0CAH3, S724C); test: Fluorescence quenching binding to AbaPiuA-FM sensor
Procedure: as §1, with “β-mercaptoethanol. After collecting the fluoresceinated cells by centrifugation at 7500×g for 15 min, and washing with 50 mM NaHPO4, pH 6.7, we re-suspended them in PBS plus 0.2% glucose. We either immediately used the labeled cells in spectroscopic experiments, or rested them on ice (up to 24 h), or added glycerol to 15% and stored them (indefinitely) as 1 mL aliquots at −70° C.” for “β-mercaptoethanol.”
(§3) Fluorescence spectroscopic binding determinations. We observed fluorophore-labeled cells in an SLM AMINCO 8100 fluorescence spectrometer, upgraded with an OLIS operating system and software (OLIS SpectralWorks, OLIS Inc., Bogart, GA), to control its shutters, polarizers and data collection. We also utilized an OLIS Clarity fluorescence spectrometer for fluorescence assays. For binding determinations we deposited 2.5×10^7 labeled cells in a quartz cuvette (final volume, 2 mL) with stirring at 37° C., measured the initial fluorescence (F0), and then added increasing concentrations of an iron complex while monitoring the quenching of fluorescence emissions (F) at 520 nm. We performed each measurement in triplicate and calculated the mean value of F/F0 at each ligand concentration. […]
(§4) Table 1 lists KD values from analysis of fluorescence quenching with ferric or apo (parenthetic values) siderophores or porphyrins. […]

EcoFiu = target: T2, EcoFiu (Escherichia coli, UniProt P75780, A694C); test: biochemical; type: binding
T2 construct: expressed in transfected cells; host or cells: E. coli OKN3/OKN13/OKN359/OKN1359 carrying a pITS23 derivative
Procedure: (§5) Fluorescence modifications. For modifications with maleimide fluorophores, we inoculated E. coli strains OKN3, OKN13, OKN359 or OKN1359, harboring plasmids that encoded a Cys mutant LGP, from frozen stocks into LB, grew them overnight and sub-cultured at 1% into iron-deficient MOPS minimal media, with shaking (200 rpm) at 37° C. for 10-12 h, until late exponential phase. After collecting the cells by centrifugation at 7500×g for 15 min, and washing with 50 mM NaHPO4, pH 6.7, we labeled the Cys-mutant LGP with 5 μM FM in 50 mM NaHPO4, pH 6.7 for 15 min at 37° C. FM. We terminated the labeling reactions with 100 μM β-mercaptoethanol. After collecting the fluoresceinated cells by centrifugation at 7500×g for 15 min, and washing with 50 mM NaHPO4, pH 6.7, we re-suspended them in PBS plus 0.2% glucose. We either immediately used the labeled cells in spectroscopic experiments, or rested them on ice (up to 24 h), or added glycerol to 15% and stored them (indefinitely) as 1 mL aliquots at −70° C. In the latter case, after thawing the labeled cells we pelleted them by centrifugation in a microfuge, washed them once with and re-suspended them in PBS containing 0.2% glucose. Lastly, for evaluation of protein expression or the extent of FM-labeling we solubilized aliquots of the cell suspensions with sample buffer, and subjected them to SDS-PAGE. After electrophoresis, we first visualized the fluorescence labeling on a Typhoon 8600 Biomolecular Scanner (GE/Amersham), and then stained the gels with Coomassie blue R (153).
(§6) Fluorescence spectroscopic binding determinations. We observed fluorophore-labeled cells in an SLM AMINCO 8100 fluorescence spectrometer, upgraded with an OLIS operating system and software (OLIS SpectralWorks, OLIS Inc., Bogart, GA), to control its shutters, polarizers and data collection. We also utilized an OLIS Clarity fluorescence spectrometer for fluorescence assays. For binding determinations we deposited 2.5×10^7 labeled cells in a quartz cuvette (final volume, 2 mL) with stirring at 37° C., measured the initial fluorescence (F0), and then added increasing concentrations of an iron complex while monitoring the quenching of fluorescence emissions (F) at 520 nm. We performed each measurement in triplicate and calculated the mean value of F/F0 at each ligand concentration. We plotted 1−F/F0 vs [ligand] and analyzed the data by the 1-site binding model of Grafit 6.0.12 (Erithacus Ltd. West Sussex, UK), that fits data to a single site saturation curve, where the amount of ligand bound is plotted as a function of the amount free:
(§7) These plots yielded KD values for each of the receptor-ligand interactions, with associated standard errors.
(§8) Table 1 lists KD values from analysis of fluorescence quenching with ferric or apo (parenthetic values) siderophores or porphyrins. For each determination, we measured the extent of fluorescence quenching of an FLGP, when exposed to sequentially increasing concentrations of the listed metal complexes, as plotted in FIGS. 2-4. We performed each experiment 2 or 3 times. The tabulated KD values are from single, representative experiments, in which we collected each data point in triplicate, plotted F/F0 vs [ligand] for each quenching titration, and fitted the curves to a single site binding model using Grafit 6.012 (Erithacus Ltd, […], UK).

EcoCir = target: T3, EcoCir (Escherichia coli, UniProt P17315, G512C); test: biochemical; type: binding
T3 construct: expressed in transfected cells; host or cells: E. coli OKN3/OKN13/OKN359/OKN1359 carrying a pITS23 derivative
Procedure: as §5, §6, §7, §8

AbaPirA = target: T4, AbaPirA (Acinetobacter baumannii, UniProt D0C8V9); conditions: read-out: Affinity (KD) of sensor AbaPirA; ferric complexes; Cys residue S328C, FM-labeled; NB = no binding
T4 construct: fused on or other part: EcoFepA signal peptide in place of its own (cleaved on export); fluorescein maleimide on the engineered Cys
Procedure: For modifications with maleimide fluorophores, we inoculated E. coli strains OKN3, OKN13, OKN359 or OKN1359, harboring plasmids that encoded a Cys mutant LGP, from frozen stocks into LB, grew them overnight and sub-cultured at 1% into iron-deficient MOPS minimal media, with shaking (200 rpm) at 37° C. for 10-12 h, until late exponential phase. After collecting the cells by centrifugation at 7500×g for 15 min, and washing with 50 mM NaHPO4, pH 6.7, we labeled the Cys-mutant LGP with 5 μM FM in 50 mM NaHPO4, pH 6.7 for 15 min at 37° C. […] We terminated the labeling reactions with 100 μM β-mercaptoethanol. […]
We also utilized an OLIS Clarity fluorescence spectrometer for fluorescence assays. […] We performed each measurement in triplicate and calculated the mean value of F/F0 at each ligand concentration. We plotted 1−F/F0 vs [ligand] and analyzed the data by the 1-site binding model of Grafit 6.0.12 (Erithacus Ltd. West Sussex, UK), that fits data to a single site saturation curve, where the amount of ligand bound is plotted as a function of the amount free:
For each determination, we measured the extent of fluorescence quenching of an FLGP, when exposed to sequentially increasing concentrations of the listed metal complexes, as plotted in FIGS. 2-4. […]

KpnIroN = KpnIroN (Klebsiella pneumoniae, UniProt A0ACD7U953, T234C); test: Fluorescence quenching binding to KpnIroN-FM sensor; conditions: read-out: Affinity (KD) of sensor KpnIroN; ferric complexes; Cys residue T210C, FM-labeled; NB = no binding
Procedure: as §1, §2

AbaBauA = AbaBauA (Acinetobacter baumannii, UniProt Q76HJ9, S407C); test: Fluorescence quenching binding to AbaBauA-FM sensor
Procedure: as §1, §2

KpnFyuA = test: Fluorescence quenching binding to KpnFyuA-FM sensor; design: species or system Klebsiella pneumoniae; conditions: apo (parenthetic value); S631C; read-out: Affinity (KD) of sensor KpnFyuA, apo siderophore
Procedure: as §5, with “In the latter case, after thawing the labeled cells we pelleted them by centrifugation in a microfuge, washed them once with and re-suspended them in PBS containing 0.2% glucose. Lastly, for evaluation of protein expression or the extent of FM-labeling we solubilized aliquots of the cell suspensions with sample buffer, and subjected them to SDS-PAGE.” left out
as §3, §4

EcoFhuA = EcoFhuA (Escherichia coli, UniProt P06971); test: Fluorescence quenching binding to EcoFhuA-FM sensor; conditions: read-out: Affinity (KD) of sensor EcoFhuA, apo siderophore; apo (parenthetic value); D396C
Procedure: as §5
as §6, with “free: […]” for “free:”
as §4

T2 sequence (P75780 32-760 A694C): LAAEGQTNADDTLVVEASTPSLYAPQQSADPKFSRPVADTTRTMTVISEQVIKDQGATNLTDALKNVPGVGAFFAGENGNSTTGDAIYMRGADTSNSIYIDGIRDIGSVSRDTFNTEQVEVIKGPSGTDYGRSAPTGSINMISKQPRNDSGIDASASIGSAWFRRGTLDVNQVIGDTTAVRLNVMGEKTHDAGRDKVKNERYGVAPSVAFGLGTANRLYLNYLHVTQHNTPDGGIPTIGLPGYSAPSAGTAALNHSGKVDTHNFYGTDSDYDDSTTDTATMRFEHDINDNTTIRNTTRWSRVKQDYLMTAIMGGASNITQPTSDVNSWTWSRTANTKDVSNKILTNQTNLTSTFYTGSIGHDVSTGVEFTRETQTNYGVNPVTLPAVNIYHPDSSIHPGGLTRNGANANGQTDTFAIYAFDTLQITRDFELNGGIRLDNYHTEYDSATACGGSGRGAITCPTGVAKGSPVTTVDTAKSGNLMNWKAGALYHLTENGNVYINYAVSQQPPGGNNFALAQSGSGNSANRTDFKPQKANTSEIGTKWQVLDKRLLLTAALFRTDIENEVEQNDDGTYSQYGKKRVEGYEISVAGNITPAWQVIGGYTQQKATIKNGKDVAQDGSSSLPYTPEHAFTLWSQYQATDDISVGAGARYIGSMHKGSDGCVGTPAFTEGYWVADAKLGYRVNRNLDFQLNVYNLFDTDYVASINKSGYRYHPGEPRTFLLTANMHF
T3 sequence (P17315 26-663 G512C): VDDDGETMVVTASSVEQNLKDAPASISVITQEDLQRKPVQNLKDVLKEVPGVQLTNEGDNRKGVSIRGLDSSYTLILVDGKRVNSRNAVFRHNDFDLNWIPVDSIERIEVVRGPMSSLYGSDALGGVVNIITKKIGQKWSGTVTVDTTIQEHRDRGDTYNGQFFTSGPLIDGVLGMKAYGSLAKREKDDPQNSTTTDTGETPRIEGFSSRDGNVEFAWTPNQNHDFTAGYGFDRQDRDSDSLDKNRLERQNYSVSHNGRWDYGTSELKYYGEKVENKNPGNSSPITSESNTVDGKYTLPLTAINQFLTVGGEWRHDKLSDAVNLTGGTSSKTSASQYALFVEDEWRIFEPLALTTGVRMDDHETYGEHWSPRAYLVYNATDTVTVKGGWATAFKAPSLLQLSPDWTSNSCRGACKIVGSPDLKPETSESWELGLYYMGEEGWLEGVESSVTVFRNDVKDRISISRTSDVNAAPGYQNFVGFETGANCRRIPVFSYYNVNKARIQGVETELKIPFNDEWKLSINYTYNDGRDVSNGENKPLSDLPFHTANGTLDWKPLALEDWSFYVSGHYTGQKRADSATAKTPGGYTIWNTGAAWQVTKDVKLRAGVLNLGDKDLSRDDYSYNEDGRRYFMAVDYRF
EcoFhuA, sequence (P06971 34-747): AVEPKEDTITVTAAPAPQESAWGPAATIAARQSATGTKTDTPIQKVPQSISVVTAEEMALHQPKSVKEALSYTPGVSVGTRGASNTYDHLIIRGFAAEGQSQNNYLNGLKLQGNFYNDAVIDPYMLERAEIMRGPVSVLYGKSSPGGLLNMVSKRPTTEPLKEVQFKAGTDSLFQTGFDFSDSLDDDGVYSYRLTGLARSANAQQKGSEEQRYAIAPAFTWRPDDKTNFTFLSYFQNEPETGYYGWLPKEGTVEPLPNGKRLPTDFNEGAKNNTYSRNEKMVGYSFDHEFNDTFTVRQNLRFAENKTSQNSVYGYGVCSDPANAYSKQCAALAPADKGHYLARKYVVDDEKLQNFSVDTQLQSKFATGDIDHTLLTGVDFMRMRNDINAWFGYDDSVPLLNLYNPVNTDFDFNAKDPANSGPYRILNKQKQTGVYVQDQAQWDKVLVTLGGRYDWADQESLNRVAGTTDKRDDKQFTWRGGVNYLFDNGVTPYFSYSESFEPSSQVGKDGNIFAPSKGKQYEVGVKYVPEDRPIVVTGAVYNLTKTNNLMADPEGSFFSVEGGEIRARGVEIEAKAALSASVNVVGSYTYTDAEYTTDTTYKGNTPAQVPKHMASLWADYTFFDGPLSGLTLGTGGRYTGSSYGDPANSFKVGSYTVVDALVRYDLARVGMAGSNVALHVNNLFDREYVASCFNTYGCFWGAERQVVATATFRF

CC(=O)N([O-])CCCC[C@H](NC(=O)CC(O)(CC(=O)N[C@@H](CCCCN([O-])C(C)=O)C(=O)O)C(=O)[O-])C(=O)O.[Fe+3] [FeAbn, ferric aerobactin]
TonB-dependent uptake by test strains (CRE/ESKAPE pathogens; decoy sensors in TonB-deficient E. coli, 37° C., strains grown in iron-deficient MOPS): uptake of FeAbn by all the strains except A. baumannii

O=C(N[C@H]1COC(=O)[C@@H](NC(=O)c2cccc([O-])c2[O-])COC(=O)[C@@H](NC(=O)c2cccc([O-])c2[O-])COC1=O)c1cccc([O-])c1[O-].[Fe+3] [FeEnt, ferric enterobactin]
Kd (KpnFepA2380): 12800 nM | Transport rate (CRE/ESKAPE pathogens; iron deficient Gram (−) bacteria with maximally expressed chromosomal FepA): ~50 pMol/10^9 cells/min | Binding by PaeFpvA (PaeFpvA): weakly bound

O=C(N[C@H]1COC(=O)[C@@H](NC(=O)c2cc([C@@H]3O[C@H](CO)[C@@H](O)[C@H](O)[C@H]3O)cc(O)c2[O-])COC(=O)[C@@H](NC(=O)c2cc([C@@H]3O[C@H](CO)[C@@H](O)[C@H](O)[C@H]3O)cc(O)c2[O-])COC1=O)c1cccc(O)c1[O-].[Fe+3] [FeGEnt]
Binding by AbaPiuA (AbaPiuA): did not bind

CC(C)(O/N=C(\C(=O)N[C@@H]1C(=O)N2C(C(=O)[O-])=C(C[N+]3(CCNC(=O)c4ccc([O-])c([O-])c4Cl)CCCC3)CS[C@H]12)c1csc(N)n1)C(=O)[O-].[Fe+3] [FeFDC]
Kd (EcoFiu): 540 nM | Kd (EcoCir): 60 nM | Kd (AbaPirA): 4800 nM | Kd (KpnIroN): 580 nM | Kd (AbaPiuA): 57000 nM | Kd (AbaBauA): 181000 nM

CC(C)(C1=N[C@@](C)(C(=O)O)CS1)[C@H](O)[C@@H]1CSC([C@H]2CSC(c3ccccc3O)=N2)N1 (some centres unmarked) [Ybt, yersiniabactin]
Kd (KpnFyuA): 120 nM

CC(=O)N(O)CCC[C@@H]1NC(=O)CNC(=O)CNC(=O)CNC(=O)[C@H](CCCN(O)C(C)=O)NC(=O)[C@H](CCCN(O)C(C)=O)NC1=O [apoFc] (cyclo(GGG[Orn(N5-OH,N5-Ac)][Orn(N5-OH,N5-Ac)][Orn(N5-OH,N5-Ac)]))
Kd (EcoFhuA): 200 nM

O=C(N[C@@H](CO)C(=O)O)c1cccc(O)c1O.[Fe+3] [FeDHBS]
Binding by AbaPiuA (AbaPiuA): did not bind
